Each structure is given as a SMILES string.

Experimental findings from US20030100590A1, “3-(4,5-dihydroisoxazol-5-yl)benzoylpyrazole” (priority 1999, published 2003) are described below.

One series deals with spring wheat. Put plainly: greenhouse post-emergence test, crop plant compatibility. The series is classed as in vivo, Tritricum aestivum. The conditions noted are these: application rate 125 or 62.5 g/ha a.s., 2 to 4 weeks. Here is the method: (§1) The seeds of the test plants were sown separately for each species. For the post-emergence treatment, the test plants were grown to a plant height of from 3 to 15 cm, depending on the plant habit, and only then treated with the active ingredients which had been suspended or emulsified in water. To this end, the test plants were either sown directly and grown in the same containers, or they were first grown separately as seedlings and transplanted into the test containers a few days prior to treatment. The rate of application for the post-emergence treatment was 125 or 62.5 g/ha a.s. (active substance). Depending on the species, the plants were kept at from 10 to 25° C. and 20 to 35° C., respectively. The test period extended over 2 to 4 weeks. During this time, the plants were tended, and their response to the individual treatments was evaluated. Evaluation was carried out using a scale of from 0 to 100. 100 means no emergence of the plants, or complete destruction of at least the aerial parts, and 0 means no damage or normal course of growth. The plants used in the greenhouse experiments belonged to the following species: [table]

The test system of series [1] is Avena fatua, Bromus inermis, Matricaria chamomilla, Matricaria inodora. Put plainly: greenhouse post-emergence herbicidal test, harmful plants. The series is classed as in vivo. The conditions noted are these: application rate 125 or 62.5 g/ha a.s., 2 to 4 weeks. Here is the method: as §1

One may read the melting point as the temperature, or range, at which the solid turns liquid. For `CC1=NOC(c2c(S(C)(=O)=O)ccc(C(=O)c3cnn(C4CC4)c3O)c2Cl)C1` (stereo not shown) [Compound 2.36, 4-[2-Chloro-3-(3-methyl-4 , 5-dihydroisoxazol-5-yl)-4-methyl-sulfonylbenzoyl]-5-hydroxy-1-cyclopropyl-1H-pyrazole], the melting point is greater than 220 °C.

With `Cc1cc(-c2c(S(C)(=O)=O)ccc(C(=O)c3cnn(C)c3O)c2C)on1` [A], in the series on spring wheat, the “compatibility with / damage in the crop plant spring wheat” value was “caused damage”. Further, in series [1], the “herbicidal activity against the abovementioned harmful plants” value is “weaker herbicidal activity”.

Regarding `CC1=NOC(c2c(S(C)(=O)=O)ccc(C(=O)c3cnn(C)c3O)c2Cl)C1` (stereo not shown) [Compound 2.8, 4-[2-Chloro-3-(3-methyl-4,5-dihydroisoxazol-5-yl)-4-methyl-sulfonylbenzoyl]-5-hydroxy-1-methyl-1H-pyrazole], the melting point was greater than 215 °C.
